pIC50: −log10 of the molar value. Where a SMILES comes first, the peptide text is derived from it. Bridges are numbered along the chain shown (N, C = ends). [ ]: non-standard residue; d: D form. Nle = CCCC[C@H](N)C(=O)O
Columns and labels:
[1] = molecular target: T1, human Kv1.1 (Homo sapiens, UniProt Q09470); test: cell-based; conditions: ratio of patch clamp IC50 values
T1 construct: expressed in transfected cells; host or cells: CHO

[2] = molecular target: T2, human Kv1.6 (Homo sapiens, UniProt P17658); test: cell-based; conditions: ratio of patch clamp IC50 values
T2 construct: expressed in transfected cells; host or cells: CHO
T2 sequence (P17658 whole entry): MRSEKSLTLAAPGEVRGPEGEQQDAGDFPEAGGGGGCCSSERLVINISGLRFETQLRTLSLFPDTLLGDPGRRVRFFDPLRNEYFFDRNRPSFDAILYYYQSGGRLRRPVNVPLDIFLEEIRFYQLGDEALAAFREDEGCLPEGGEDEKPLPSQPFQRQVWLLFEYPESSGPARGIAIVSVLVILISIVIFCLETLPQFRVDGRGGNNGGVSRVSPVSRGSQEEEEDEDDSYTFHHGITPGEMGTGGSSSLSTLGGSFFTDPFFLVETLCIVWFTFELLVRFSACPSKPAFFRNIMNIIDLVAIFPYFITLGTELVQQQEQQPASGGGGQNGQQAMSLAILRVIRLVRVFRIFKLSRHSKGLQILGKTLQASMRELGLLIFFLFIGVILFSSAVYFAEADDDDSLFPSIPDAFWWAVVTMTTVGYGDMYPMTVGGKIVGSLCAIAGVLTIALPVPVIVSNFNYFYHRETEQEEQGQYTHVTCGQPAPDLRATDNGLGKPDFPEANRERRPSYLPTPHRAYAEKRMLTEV

[3] = molecular target: T3, human Kv1.2 (Homo sapiens, UniProt P16389); test: cell-based; conditions: ratio of patch clamp IC50 values
T3 construct: expressed in transfected cells; host or cells: CHO
T3 sequence (P16389 whole entry): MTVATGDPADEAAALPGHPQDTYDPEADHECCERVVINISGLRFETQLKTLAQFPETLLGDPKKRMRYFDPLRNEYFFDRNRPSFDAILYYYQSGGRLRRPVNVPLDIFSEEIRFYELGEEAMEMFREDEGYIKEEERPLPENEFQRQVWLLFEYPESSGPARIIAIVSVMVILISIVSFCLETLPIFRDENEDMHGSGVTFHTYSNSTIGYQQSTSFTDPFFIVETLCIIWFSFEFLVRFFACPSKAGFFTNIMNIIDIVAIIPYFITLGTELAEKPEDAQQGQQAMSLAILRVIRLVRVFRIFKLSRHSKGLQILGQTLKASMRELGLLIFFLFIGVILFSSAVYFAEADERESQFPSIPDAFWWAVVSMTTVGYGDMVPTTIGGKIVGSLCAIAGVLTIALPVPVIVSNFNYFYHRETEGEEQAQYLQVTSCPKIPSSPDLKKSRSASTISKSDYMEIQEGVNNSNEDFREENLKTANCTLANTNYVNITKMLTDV

[4] = molecular target: Rat whole blood (Rattus norvegicus, UniProt P15384); format: cell-based; conditions: IL-17A release, thapsigargin, 24 Hr, at least 2 replicates
Sequence of Rat whole blood (P15384 whole entry): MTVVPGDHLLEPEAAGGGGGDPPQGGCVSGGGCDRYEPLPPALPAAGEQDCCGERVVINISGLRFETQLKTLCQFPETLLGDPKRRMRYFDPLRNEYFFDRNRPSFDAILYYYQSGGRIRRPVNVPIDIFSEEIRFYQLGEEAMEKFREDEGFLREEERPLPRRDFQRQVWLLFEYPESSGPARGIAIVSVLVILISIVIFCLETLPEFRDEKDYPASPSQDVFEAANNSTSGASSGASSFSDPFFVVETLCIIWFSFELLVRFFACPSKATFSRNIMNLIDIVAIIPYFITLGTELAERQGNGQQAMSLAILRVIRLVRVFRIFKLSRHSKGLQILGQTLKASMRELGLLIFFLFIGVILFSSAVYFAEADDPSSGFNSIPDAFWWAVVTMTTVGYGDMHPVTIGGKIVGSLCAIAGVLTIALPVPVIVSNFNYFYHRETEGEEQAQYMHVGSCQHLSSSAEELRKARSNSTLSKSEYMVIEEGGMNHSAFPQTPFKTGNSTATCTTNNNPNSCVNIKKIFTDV

T1 sequence (Q09470 whole entry): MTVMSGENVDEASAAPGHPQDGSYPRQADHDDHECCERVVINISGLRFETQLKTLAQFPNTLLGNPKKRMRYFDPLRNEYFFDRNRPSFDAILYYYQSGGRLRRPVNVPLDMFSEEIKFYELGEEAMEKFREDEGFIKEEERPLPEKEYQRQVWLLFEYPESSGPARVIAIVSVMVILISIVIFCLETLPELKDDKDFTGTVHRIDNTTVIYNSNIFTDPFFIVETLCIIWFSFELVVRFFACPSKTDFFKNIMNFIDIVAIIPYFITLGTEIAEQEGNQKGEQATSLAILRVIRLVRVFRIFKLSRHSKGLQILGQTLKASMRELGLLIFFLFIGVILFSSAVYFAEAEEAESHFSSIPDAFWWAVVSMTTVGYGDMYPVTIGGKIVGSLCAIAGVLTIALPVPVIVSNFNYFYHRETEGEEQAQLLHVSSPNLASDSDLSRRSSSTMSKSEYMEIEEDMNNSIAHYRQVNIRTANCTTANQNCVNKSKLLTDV

| SMILES | Selectivity ratio Kv1.1/Kv1.3 [1] | Selectivity ratio Kv1.6/Kv1.3 [2] | Selectivity ratio Kv1.2/Kv1.3 [3] | pIC50 [4] |
| --- | --- | --- | --- | --- |
| CC[C@H](C)[C@@H]1NC(=O)[C@H](C)NC(=O)[C@H](CCCCN)NC(=O)[C@H](CC(C)C)NC(=O)[C@@H]2CSSC[C@@H](C(=O)N[C@@H](Cc3ccc(O)cc3)C(=O)N3CCC[C@H]3C(=O)N[C@@H](CCCNC(=N)N)C(N)=O)NC(=O)[C@H](CCCCN)NC(=O)[C@@H]3CSSC[C@H](NC(=O)[C@H](CCC(=O)O)NC(=O)[C@H](C(C)C)NC(=O)[C@H](CO)NC(=O)[C@H](C)NC(=O)[C@H](CO)NC(=O)[C@@H](NC(=O)[C@H](CCCNC(=N)N)NC(=O)[C@H](CCSC)NC(=O)[C@H](CC(=O)O)NC(=O)[C@H](CCSC)NC(=O)[C@@H](N)CC(N)=O)CSSC[C@H](NC(=O)[C@H](CCCCN)NC(=O)CNC(=O)[C@H](Cc4ccccc4)NC(=O)[C@H]([C@@H](C)CC)NC(=O)[C@H](CO)NC(=O)CNC1=O)C(=O)N[C@@H](CCSC)C(=O)N[C@@H](CC(N)=O)C(=O)N[C@@H](CCCCN)C(=O)N[C@@H](CCCCN)C(=O)N3)C(=O)N[C@@H](CCCCN)C(=O)N[C@@H](CCC(N)=O)C(=O)N[C@@H](CC(C)C)C(=O)N2 [compound 23] (H-NMDMRCSASVECKQLCLKAIGSIFGKCMNKKCKCYPR-NH2; disulfide 6-27, 12-32, 16-34) | >12700 | >12700 | 1080 | 8.49 |
| CC[C@H](C)[C@@H]1NC(=O)[C@H](C)NC(=O)[C@H](CCCCN)NC(=O)[C@H](CC(C)C)NC(=O)[C@@H]2CSSC[C@@H](C(=O)N[C@@H](Cc3ccc(O)cc3)C(=O)N3CCC[C@H]3C(=O)N[C@@H](CCCNC(=N)N)C(N)=O)NC(=O)[C@H](CCCCN)NC(=O)[C@@H]3CSSC[C@H](NC(=O)[C@H](CCC(=O)O)NC(=O)[C@H](C(C)C)NC(=O)[C@H](CO)NC(=O)[C@H](C)NC(=O)[C@H](CO)NC(=O)[C@@H](NC(=O)[C@H](CCCNC(=N)N)NC(=O)[C@H](CCSC)NC(=O)[C@H](CC(=O)O)NC(=O)[C@H](CCSC)NC(=O)[C@@H](N)CC(N)=O)CSSC[C@H](NC(=O)[C@H](CCCCN)NC(=O)CNC(=O)[C@H](Cc4ccccc4)NC(=O)[C@H]([C@@H](C)CC)NC(=O)[C@H](CO)NC(=O)CNC1=O)C(=O)N[C@@H](CCSC)C(=O)N[C@@H](CC(N)=O)C(=O)NCC(=O)N[C@@H](CCCCN)C(=O)N3)C(=O)N[C@@H](CCCCN)C(=O)N[C@@H](CCC(N)=O)C(=O)N[C@@H](CCCCN)C(=O)N2 [compound 40] (H-NMDMRCSASVECKQKCLKAIGSIFGKCMNGKCKCYPR-NH2; disulfide 6-27, 12-32, 16-34) | >9700 | >9700 | 1422 | 8.92 |
| CCCC[C@H](NC(=O)[C@@H](N)CO)C(=O)N[C@@H](CC(=O)O)C(=O)N[C@@H](CCC(=O)O)C(=O)N[C@@H](CCCNC(=N)N)C(=O)N[C@H]1CSSC[C@@H]2NC(=O)[C@H](CCCCN)NC(=O)CNC(=O)[C@H](Cc3ccccc3)NC(=O)[C@H]([C@@H](C)CC)NC(=O)[C@H](CO)NC(=O)CNC(=O)[C@H]([C@@H](C)CC)NC(=O)[C@H](C)NC(=O)[C@H](CCCCN)NC(=O)[C@H](CC(C)C)NC(=O)[C@@H]3CSSC[C@@H](C(=O)N[C@@H](Cc4ccc(O)cc4)C(=O)N4CCC[C@H]4C(=O)N[C@@H](CCCNC(=N)N)C(N)=O)NC(=O)[C@H](CCCCN)NC(=O)[C@H](CSSC[C@H](NC(=O)[C@H](CCC(=O)O)NC(=O)[C@H](C(C)C)NC(=O)[C@H](CO)NC(=O)[C@H](C)NC(=O)[C@H](CO)NC1=O)C(=O)N[C@@H](CCCCN)C(=O)N[C@@H](CCC(N)=O)C(=O)N[C@@H](CCCCN)C(=O)N3)NC(=O)[C@H](CCCCN)NC(=O)[C@H](CCCCN)NC(=O)[C@H](CC(N)=O)NC(=O)[C@H](CCSC)NC2=O [compound 76] (H-S[Nle]DERCSASVECKQKCLKAIGSIFGKCMNKKCKCYPR-NH2; disulfide 6-27, 12-32, 16-34) | >10600 | >10600 | 430 | 9.26 |
| CCCC[C@@H]1NC(=O)[C@@H]2CSSC[C@H](N)C(=O)N[C@@H](CO)C(=O)N[C@@H](C)C(=O)N[C@@H](CO)C(=O)N[C@@H](C(C)C)C(=O)N[C@@H](CCC(=O)O)C(=O)N[C@H]3CSSC[C@H](NC(=O)[C@H](CCCCN)NC(=O)[C@H](CCCCN)NC(=O)[C@H](CC(N)=O)NC1=O)C(=O)N[C@@H](CCCCN)C(=O)N[C@H](C(=O)N[C@@H](Cc1ccc(O)cc1)C(=O)N1CCC[C@H]1C(=O)N[C@@H](CCCNC(=N)N)C(N)=O)CSSC[C@H](NC(=O)[C@H](CCCCN)NC(=O)[C@H](CCC(N)=O)NC(=O)[C@H](CCCCN)NC3=O)C(=O)N[C@@H](CC(C)C)C(=O)N[C@@H](CCCCN)C(=O)N[C@@H](C)C(=O)N[C@@H]([C@@H](C)CC)C(=O)NCC(=O)N[C@@H](CO)C(=O)N[C@@H]([C@@H](C)CC)C(=O)N[C@@H](Cc1ccccc1)C(=O)NCC(=O)N[C@@H](CCCCN)C(=O)N2 [compound 98] (H-CSASVECKQKCLKAIGSIFGKC[Nle]NKKCKCYPR-NH2; disulfide 1-22, 7-27, 11-29) | >7000 | >7000 | >7000 | 8.80 |
| CC[C@H](C)[C@@H]1NC(=O)[C@H](C)NC(=O)[C@H](CCCCN)NC(=O)[C@H](CCCCN)NC(=O)[C@@H]2CSSC[C@@H](C(=O)N[C@@H](Cc3ccc(O)cc3)C(=O)N3CCC[C@H]3C(=O)N[C@@H](CCCNC(=N)N)C(N)=O)NC(=O)[C@H](CCCCN)NC(=O)[C@@H]3CSSC[C@H](NC(=O)[C@H](CCC(=O)O)NC(=O)[C@H](C(C)C)NC(=O)[C@H](CO)NC(=O)[C@H](C)NC(=O)[C@H](CO)NC(=O)[C@@H](NC(=O)[C@H](CCCNC(=N)N)NC(=O)[C@H](CCSC)NC(=O)[C@H](CC(=O)O)NC(=O)[C@H](CCSC)NC(=O)[C@@H](N)CC(N)=O)CSSC[C@H](NC(=O)[C@H](CCCCN)NC(=O)CNC(=O)[C@H](Cc4ccccc4)NC(=O)[C@H]([C@@H](C)CC)NC(=O)[C@H](CO)NC(=O)CNC1=O)C(=O)N[C@@H](CCSC)C(=O)N[C@@H](CC(N)=O)C(=O)N[C@@H](CCCCN)C(=O)N[C@@H](CCCCN)C(=O)N3)C(=O)N[C@@H](CCCCN)C(=O)N[C@@H](CCC(N)=O)C(=O)N[C@@H](CCCCN)C(=O)N2 [compound 24] (H-NMDMRCSASVECKQKCKKAIGSIFGKCMNKKCKCYPR-NH2; disulfide 6-27, 12-32, 16-34) | >13500 | 1955 | 202 | 9.25 |

— patent US20240182531A1, “KV1.3 Blockers” (priority 2021, published 2024)
